Experiments:
[1] = molecular target: CDK 2 and CDK9; experiment: In-vitro kinase potency screen against CDK 2 and CDK9 (statements in words); format: biochemical; conditions: Table 7 (not given): [A1], [A2], [A3] and [1]
Method: To evaluate the in-vitro kinase potency of the compounds, they were screened against CDK 2 and CDK9. Kinase assays were performed in 96-well plates using recombinant CDK/cyclins generated at Cyclacel. Ltd Dundee, UK. CDK2 and CDK9 assays were performed in a total volume of 25 μl in assay buffer (25 mM b-glycerophosphate, 20 mM MOPS, 5 mM EGTA, 1 mM DTT and 1 mM NaVO3, pH 7.4), into which were added 2-4 μg of active enzyme with appropriate substrates (purified histone H1 for CDK2/cyclin E, and CDK2/cyclin A, biotinyl-Ahx-(YSPTSPS)4 for CDK9/cyclin T1). The reaction was initiated by addition of Mg/ATP mix (15 mM MgCl2+100 μM ATP with 30-50 kBq per well of [—^32P]-ATP) and mixtures incubated for 15 min (CDK2/cyclin E), 30 min (CDK2/cyclin A) or 45 min (CDK9/cyclin T1) as required, at 30° C. […] After washing 3 times with 75 mM orthophosphoric acid, plates were dried, scintillant added and incorporated radioactivity measured in a scintillation counter (TopCount, Packard Instruments, Pangbourne, Berks, UK). […]
To evaluate the in-vitro kinase potency of the compounds, they were screened against CDK 2 and CDK9. […] After washing 3 times with 75 mM orthophosphoric acid, plates were dried, scintillant added and incorporated radioactivity measured in a scintillation counter (TopCount, Packard Instruments, Pangbourne, Berks, UK). […]

[2] = tested on: NCI-H460; experiment: Alamar blue cytotoxicity assay NCI-H460; format: cell-based; conditions: Homo sapiens, 72 hours, read-out: cellular cytotoxicity IC50 NCI-H460
Method: (§1) In order to determine the cellular potency of the compounds, the cytotoxicity of each compound was determined against a range of cell lines. Standard cytotoxicity methods were performed as follows: cells were seeded in 96-well plates appropriately for their doubling time (2-5000 cells per well) in RPMI or DMEM media containing 10% FCS and incubated overnight at 37° C., 5% CO2. The media was removed and 100 μl fresh media containing increasing concentrations of appropriate compound was added and the cells incubated for 72 hours at 37° C., 5% CO2. A 10% stock of alamar blue (Roche, Lewes, United Kingdom) was prepared in medium and 100 μl added to the cells which were incubated for 2 hours. Absorbance was measured on the Wallac Victor 2 1420 multi-label counter at 544-595 nm.

[3] = tested on: A549; experiment: Alamar blue cytotoxicity assay A549; format: cell-based; conditions: Homo sapiens, 72 hours, read-out: cellular cytotoxicity IC50 A549
Method: as §1

[4] = molecular target: CYP2C19 (Homo sapiens (Human), UniProt P33261); experiment: CYP2C19 inhibition, human liver microsomes, mephenyloin; format: in vitro ADME
Sequence of CYP2C19 (P33261 whole entry): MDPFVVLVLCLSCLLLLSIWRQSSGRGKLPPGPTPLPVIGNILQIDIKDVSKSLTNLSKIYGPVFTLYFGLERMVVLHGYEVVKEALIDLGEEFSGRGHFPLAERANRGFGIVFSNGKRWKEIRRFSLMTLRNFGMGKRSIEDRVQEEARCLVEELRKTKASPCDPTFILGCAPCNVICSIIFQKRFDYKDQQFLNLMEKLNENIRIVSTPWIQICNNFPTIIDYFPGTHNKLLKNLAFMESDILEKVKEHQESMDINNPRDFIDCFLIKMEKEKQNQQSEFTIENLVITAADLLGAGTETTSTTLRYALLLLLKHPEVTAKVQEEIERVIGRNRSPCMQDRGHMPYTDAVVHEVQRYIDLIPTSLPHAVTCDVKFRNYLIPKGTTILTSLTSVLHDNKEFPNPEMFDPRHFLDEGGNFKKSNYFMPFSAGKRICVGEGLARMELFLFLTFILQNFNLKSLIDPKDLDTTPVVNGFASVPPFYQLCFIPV
Method: (§2) Six test compound concentrations (0.05, 0.25, 0.5, 2.5, 5, 25 μM in DMSO; final DMSO concentration=0.25%) were incubated with human liver microsomes (0.5 mg/mL) and NADPH (1 mM) in the presence of the probe substrate mephenyloin (25 μM) for 60 min at 37° C. The selective CYP2C19 inhibitor, tranylcypromine, was screened alongside the test compounds as a positive control.
(§3) For the CYP1A incubations, the reactions were terminated by the addition of methanol, and the formation of the metabolite, resorufin, was monitored by fluorescence (excitation wavelength=535 nm, emission wavelength=595 nm). For the CYP2C9, CYP2C19, CYP2D6, and CYP3A4 incubations, the reactions were terminated by the addition of methanol containing internal standard. The samples were then centrifuged, and the supernatants were combined, for the simultaneous analysis of 4-hydroxytolbutamide, 4-hydroxymephenyloin, dextrorphan, and 1-hydroxymidazolam plus internal standard by LC-MS/MS using generic LC-MS/MS conditions. Formic acid in deionised water (final concentration=0.1%) was added to the final sample prior to analysis.

[5] = molecular target: CYP3A4 (Homo sapiens (Human), UniProt P08684); experiment: CYP3A4 inhibition, human liver microsomes, midazolam; format: in vitro ADME
Sequence of CYP3A4 (P08684 whole entry): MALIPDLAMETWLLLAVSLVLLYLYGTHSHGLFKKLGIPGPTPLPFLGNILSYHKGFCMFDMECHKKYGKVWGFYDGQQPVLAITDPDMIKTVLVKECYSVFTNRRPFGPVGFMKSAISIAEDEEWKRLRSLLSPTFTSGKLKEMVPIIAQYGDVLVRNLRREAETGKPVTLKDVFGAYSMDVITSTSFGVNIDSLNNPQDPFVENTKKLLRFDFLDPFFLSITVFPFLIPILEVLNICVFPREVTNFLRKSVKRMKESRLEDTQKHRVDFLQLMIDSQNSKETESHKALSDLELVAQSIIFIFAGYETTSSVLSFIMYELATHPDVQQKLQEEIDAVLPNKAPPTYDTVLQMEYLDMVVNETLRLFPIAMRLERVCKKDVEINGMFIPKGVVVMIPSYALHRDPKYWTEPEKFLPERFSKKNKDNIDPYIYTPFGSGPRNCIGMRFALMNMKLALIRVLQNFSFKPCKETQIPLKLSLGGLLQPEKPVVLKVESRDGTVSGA
Method: as §2, with “concentration 0.26%)” for “concentration=0.25%)”, “(0.25” for “(0.5”, “midazolam (2.5” for “mephenyloin (25”, “5” for “60”, “CYP3A4” for “CYP2C19”, “ketoconazole,” for “tranylcypromine,”
as §3

[6] = tested on: H292; experiment: Alamar blue cytotoxicity assay H292; format: cell-based; conditions: Homo sapiens, NCI-H292; 72 hours; read-out: cellular cytotoxicity IC50 H292
Method: as §1

[7] = tested on: MDA-MB-436; experiment: Alamar blue cytotoxicity assay MDA-MB-436; format: cell-based; conditions: Homo sapiens, 72 hours, read-out: cellular cytotoxicity IC50 MDA-MB-436
Method: as §1

Question: With CC[C@H](Nc1nc(NCc2cnc(C)cc2C)c2ncn(C(C)C)c2n1)[C@@H](C)O [Compound [1]] as the compound, how does the “kinase inhibitor potency ranking (in words)” value [1] read?
Answer: most potent kinase inhibitors

Question: And the IC50 [2]?
Answer: 500 nM

Question: And the IC50 [3]?
Answer: 160 nM

Question: What about the IC50 [4] of the same compound?
Answer: > 25 µM

Question: And the “CYP3A4-inhibiting concentration as multiple of cellular IC50” value [5]?
Answer: ~60 times

Question: And the “concentration up to which CYP3A4 is not inhibited” value [5]?
Answer: greater than 20 μM

Question: And the “inhibition of CYP3A4 (in words)” value [5]?
Answer: does not significantly inhibit CYP3A4

Question: And the IC50 ([5]; human liver microsomes)?
Answer: 22.5 µM

Question: And the IC50 [6]?
Answer: 370 nM

Question: And the IC50 [7]?
Answer: 440 nM
